Assay results reported in patent US8153658B2, “Piperidine derivative or salt thereof” (Astellas Pharma, Inc., priority 2006, dated 2012).
Counter-ions that a name gives are not always drawn.

Assays:
[1] = Measurement of rat plasma calcium concentration; assay type: in vivo; conditions: normal male rats, single oral administration 3 mg/kg, 2 hours after administration, read-out: Rat plasma calcium concentration reducing ratio (%) 2 hours after administration (3 mg/kg)
Experimental: Test 2. Measurement of Rat Plasma Calcium Concentration and Plasma PTH Concentration
The compounds of the present invention were administered to rats, and their influences upon the plasma calcium concentration and the plasma PTH concentration were examined. The test was carried out by single oral administration of the compounds of the present invention and the control compounds to 5 to 6 normal male rats, or male rats with renal failure, respectively As a vehicle group, 0.5% of a methyl cellulose (MC) solution was administered at a dose of 5 ml/kg. As a reference compound, cinacalcet was dissolved in the MC solution and administered at a dose of 3 mg/kg. Each of the compounds of the present invention was dissolved or suspended in the MC solution, and administered at a dose of 1, 3 or 10 mg/kg.
Blood samples were collected from the orbital venous plexus under ether anesthesia before the administration and 2 hours, 4 hours, or 8 hours in some cases, after the administration, and the plasma calcium concentration was measured using Calcium E-Test Wako (manufactured by Wako Pure Chemical Industries), and the plasma PTH concentration was measured using a Rat Intact PTH ELISA Kit (manufactured by Immutopics).

human CaSR = target: T1, human CaSR (Homo sapiens, UniProt P41180); test: Human calcium sensing receptor (CaSR) agonism test (Fluo-3 / FLIPR); assay type: cell-based; conditions: HEK 293 cell stably expressing human CaSR; 0.5 mM Ca2+; 2 mM Ca2+ group = 100%; read-out: EC50 (compound concentration showing 50% human CaSR agonistic activity)
T1 construct: a human CaSR open reading frame (ORF) was contained in the pcDNA3.1/Zeo(+) vector; expressed in transfected cells
T1 sequence (P41180 20-1078): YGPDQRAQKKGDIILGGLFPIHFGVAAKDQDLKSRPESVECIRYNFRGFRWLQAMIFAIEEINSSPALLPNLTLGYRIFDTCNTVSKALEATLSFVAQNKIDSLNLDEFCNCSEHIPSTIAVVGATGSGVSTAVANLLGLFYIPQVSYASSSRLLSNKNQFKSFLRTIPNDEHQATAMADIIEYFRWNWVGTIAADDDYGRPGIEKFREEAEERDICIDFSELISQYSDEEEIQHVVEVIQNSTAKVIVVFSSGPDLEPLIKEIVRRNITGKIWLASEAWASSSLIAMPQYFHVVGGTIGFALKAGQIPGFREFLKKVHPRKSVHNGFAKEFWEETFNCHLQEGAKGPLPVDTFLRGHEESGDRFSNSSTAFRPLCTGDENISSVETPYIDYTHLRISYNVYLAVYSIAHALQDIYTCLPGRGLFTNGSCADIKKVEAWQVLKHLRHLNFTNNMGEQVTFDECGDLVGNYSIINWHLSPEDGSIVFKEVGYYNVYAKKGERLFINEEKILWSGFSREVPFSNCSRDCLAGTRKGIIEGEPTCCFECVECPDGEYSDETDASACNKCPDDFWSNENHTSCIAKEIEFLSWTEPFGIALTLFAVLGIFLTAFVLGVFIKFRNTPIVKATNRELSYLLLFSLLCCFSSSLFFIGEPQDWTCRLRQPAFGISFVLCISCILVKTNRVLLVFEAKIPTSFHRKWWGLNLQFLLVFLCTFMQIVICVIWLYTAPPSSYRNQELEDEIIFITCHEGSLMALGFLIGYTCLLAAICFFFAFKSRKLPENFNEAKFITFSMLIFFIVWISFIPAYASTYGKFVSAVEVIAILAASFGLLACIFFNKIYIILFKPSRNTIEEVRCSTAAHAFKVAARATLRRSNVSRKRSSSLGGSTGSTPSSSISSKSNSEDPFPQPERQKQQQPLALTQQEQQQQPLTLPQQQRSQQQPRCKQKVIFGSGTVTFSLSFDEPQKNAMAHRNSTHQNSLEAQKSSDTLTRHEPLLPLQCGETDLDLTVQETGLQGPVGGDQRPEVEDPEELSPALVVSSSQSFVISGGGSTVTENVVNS
Source text: Test 1. Human calcium sensing receptor (CaSR) agonism test
1) Preparation of Human CaSR Expression Vector
A DNA fragment coding for human CaSR was cloned in the standard method.
Illustratively, using 203 to 2387 of NM_000388 as a DNA fragment D4, and 2210 to 3633 as a DNA fragment B2, they were amplified using a human kidney cDNA (manufactured by Invitrogen) as the template and using a DNA polymerase (a registered trade name: Pyrobest, manufactured by Takara Bio), and respectively cloned into a pCR2.1 vector using a pCR2.1-Topo vector (manufactured by Invitrogen). Next, the DNA fragments prepared by digesting the pCR2.1-D4 with SpeI and XbaI were inserted into the same sites of pcDNA3.1/Zeo(+) vector. Successively, the fragments prepared by digesting pCR2.1-B2 with SacI and XbaI were inserted into the SacI and XbaI sites of previously prepared pcDNA3.1/Zeo(+)-D4(SpeI-XbaI), thereby obtaining a human CaSR expression vector pcDNA3.1/Zeo(+)-hCaSR in which a human CaSR open reading frame (ORF) was contained in the pcDNA3.1/Zeo(+) vector.
2) Preparation of Human CaSR Expression Cell
The human CaSR expression vector was transferred into a HEK 293 cell using a transfection reagent (registered trademark: FuGene 6, manufactured by Roche Diagnostics). After the gene transfer, this was cultured in a DMEM (manufactured by Invitrogen) medium containing 40 μg/ml Zeocin (registered trademark, manufactured by Invitrogen) and a 10% fetal bovine serum at 37° C. for 2 weeks in the presence of 5% CO2, thereby obtaining Zeocin-resistant clones. A human CaSR stably expressing HEK 293 clone was obtained from these clones by selection using the responsiveness to extracellular Ca^2+ as an index.
3) Human CaSR Agonism Test
The HEK 293 cell stably expressing human CaSR was inoculated into a poly-D-lysine-coated black clear bottom 96 well plate (manufactured by BD Biosciences). Hanks' balanced salt solution (HBSS) (Ca^2+ (−), Mg^2+ (−), manufactured by Invitrogen) containing a 20 mM HEPES (2-[4-(2-hydroxyethyl)-1-piperazinyl]ethanesulfonic acid) buffer (pH 7.4), 2.5 mM of probenecid (manufactured by Sigma), and 0.1% of bovine serum albumin was prepared as a washing buffer. After the inoculation and the subsequent overnight culturing, the medium was discarded, the washing buffer supplemented with 1 mM CaCl2 and 10 μM Fluo-3 AM (trade name, manufactured by DOJINDO) was added thereto in 100 μl per well portions, and then the incubation was carried out at 37° C. for 1 hour in the presence of 5% CO2. This was washed twice with 200 μl of the washing buffer, replaced by 100 μl of the washing buffer supplemented with 0.5 mM CaCl2 and allowed to stand still for 10 minutes, and then the responsiveness to each compound to be evaluated was detected using a plate reader for fluorometry image analysis use (registered trademark: FLIPR, manufactured by Molecular Devices). In this connection, the compound to be evaluated was used by optionally diluting with the washing buffer supplemented with 0.5 mM Ca^2+.
The human CaSR agonistic activity strength of each compound to be evaluated was calculated by defining the solvent group as 0% and the 2 mM of Ca^2+ in the final concentration group as 100%, and the compound concentration showing 50% activity (EC50) was calculated from a concentration-activity curve by the method of least squares.

CYP2D6 [2] = target: T2, CYP2D6 (Homo sapiens, UniProt P10635); test: Human CYP2D6 inhibition test; assay type: biochemical; design: purchased BD Gentest 456217; conditions: CYP2D6 7.5 pmol/mL; fluorescence substrate AMMC 1.5 μM; 37° C. 30 minutes
T2 sequence (P10635 whole entry): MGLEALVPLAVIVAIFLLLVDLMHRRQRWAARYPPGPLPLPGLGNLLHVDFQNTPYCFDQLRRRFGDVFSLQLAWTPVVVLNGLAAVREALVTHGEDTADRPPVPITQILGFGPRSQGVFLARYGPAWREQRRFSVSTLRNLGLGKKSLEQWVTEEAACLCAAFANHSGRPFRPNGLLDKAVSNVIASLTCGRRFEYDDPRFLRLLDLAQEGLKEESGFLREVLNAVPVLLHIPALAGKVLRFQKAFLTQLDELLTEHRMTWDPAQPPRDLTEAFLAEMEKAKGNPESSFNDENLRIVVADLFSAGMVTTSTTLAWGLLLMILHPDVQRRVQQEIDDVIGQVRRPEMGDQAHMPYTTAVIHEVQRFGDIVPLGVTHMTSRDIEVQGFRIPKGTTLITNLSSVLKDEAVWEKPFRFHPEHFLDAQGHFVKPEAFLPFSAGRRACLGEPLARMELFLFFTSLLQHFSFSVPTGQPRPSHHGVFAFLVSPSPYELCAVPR
Experimental: Test 3. Human CYP2D6 Inhibition Test
Inhibitory activity evaluation for CYP2D6 was carried out by measuring it in accordance, roughly, with a reference (“Drug Metabolism and Disposition”, 2001, vol. 29, p. 1196-1200).
Final concentrations of the reagents in the enzyme reaction solution were respectively set to CYP2D6=7.5 pmol/mL (manufactured by BD Gentest, Catalog No. 456217), reduced type nicotinamide adenine dinucleotide phosphate (NADPH) regeneration system (0.0081 mM nicotinamide adenine dinucleotide phosphate (NADP+), 0.41 mM glucose-6-phosphate, 0.41 mM MgCl2, 0.4 units glucose-6-phosphate dehydrogenase), and a fluorescence substrate AMMC=1.5 μM, 100 mM potassium phosphate buffer (pH 7.4). Each compound was made into a 50% acetonitrile solution and added to the enzyme reaction solution (acetonitrile final concentration 2.5%). The enzyme reaction was carried out at 37° C. for 30 minutes, the reaction was stopped using a stopping liquid (0.1 M tris(hydroxymethyl)aminomethane (Tris-base):acetonitrile=20:80), and the fluorescence intensity was then measured. The concentration showing 50% inhibition (IC50) was calculated from the thus obtained fluorescence intensity, by defining the enzyme activity at a time of no compound addition as 100%.

CYP2D6 [3] = target: T2, CYP2D6; conditions: reported, Non-Patent Document 4; cited from earlier work

Row | Structure (SMILES) | inhibition in vivo at 3 mg/kg [1] | EC50 (human CaSR) | IC50 (CYP2D6 [2]) | activity to inhibit CYP2D6 (in words) (CYP2D6 [3])
1 | C[C@@H](NCC1CCN(c2cccc(C(=O)O)c2)CC1c1ccccc1F)c1cccc2ccccc12 (stereo partly drawn) [Example 35, 3-[3-(2-fluorophenyl)-4-({[(1R)-1-(1-naphthyl)ethyl]amino}methyl)piperidin-1-yl]benzoic acid hydrochloride] | 33% | 7.6 nM | ≥ 20000 nM | –
2 | C[C@@H](NCC1CCN(c2c(F)cc(C(=O)O)cc2F)CC1c1ccccc1)c1cccc2ccccc12 (stereo partly drawn) [Example 52, 3,5-difluoro-4-[4-({[(1R)-1-(1-naphthyl)ethyl]amino}methyl)-3-phenylpiperidin-1-yl]benzoic acid hydrochloride] | 26% | 13 nM | ≥ 20000 nM | –
3 | C[C@@H](NCCCc1cccc(C(F)(F)F)c1)c1cccc2ccccc12 [cinacalcet] | – | – | – | strong activity to inhibit CYP2D6
